The subject of one experiment is HBV (HepG2-2.2.15 cells). Kind of experiment: HBV replication assay. It counts as cell-based. Conditions: 6 days. The method, then: To test the anti-HBV-activity of compounds of the present invention the HBV-producing cell line HepG2-2.2.15 (M. A. Sells, PNAS 1987, 84, 1005-1009) is used. About 1.0×10^4 cells are seeded in 96-well microtiter plates in DMEM medium supplemented with 10% FCS. After incubation at 37° C. in 5% CO2 atmosphere for 24 hours the medium is replaced with fresh medium containing the appropriately diluted compounds of the present invention. 3 days later medium is replaced by freshly prepared compound-containing medium and the cells are incubated for further 3 days. Subsequently 200 μl lysis buffer (50 mM Tris-Cl 7.5; 1 mM EDTA 8.0; 0.5% NP40) per well is added. To remove cell debris and nucleic acids, lysate is centrifuged (15000 rpm, 10 min, 4° C.).
Cellular and viral RNA is removed by addition of 2 μl of RNase. 100 μl of the samples are spotted onto an uncharged nylon membrane pre-wetted with PBS (phosphate-buffered saline) using a 96 well-blotting chamber (MINIfold Dot-Blot, Schleicher&Schüll). […]
The fixed membrane is pre-hybridized in a standard hybridisation buffer (50% formamide, 5×SSPE, 10×Denhards, 1% SDS, 100 μg/ml salmon sperm DNA) for at least 3 hours at 42° C. and hybridised overnight against the labelled HBV-fragment. […] The intensity of the HBV-DNA is quantified using a phosphoimager (Fuji). […] Absorbance is monitored at 570 nm and 600 nm wavelength.

Another experiment deals with CDK1/CycB (Homo sapiens, UniProt P06493). Kind of experiment: General kinase assay (Example 80). It counts as biochemical. Particulars: ATP 1 μM. The method, then:
(§1) The inhibitory effect of compounds according to the present invention on the activity of protein kinases can be measured according to the following protocol: • Reaction Volume: 40 μl • Reaction Time: 60 min • Reaction Temperature: room temperature • Assay Plate: 96 well U bottom plate (Greiner, 650161) • MultiScreen-PH Plate: 96 well MAPH Filter Plates (Millipore, MAPHNOB50) • Filter Washing Solution: 0.75% H3PO4 • Scintillation Liquid Supermix Liquid Scintillator (PerkinElmer, 1200-439) Controls: • Negative Control (C−): 100 mM EDTA (Ethylenediaminetetraacetic acid), no Inhibitor • Positive Control (C+): no Inhibitor Reaction Buffer: • 20 mM Tris (Tris(hydroxymethyl)aminomethane hydrochloride), pH 7.5 • 10 mM MgCl2 • 1 mM DTT Final Assay Concentrations: • Kinase: Use kinase conc. yielding 10% ATP turn over. • ATP: 1 μM • Adenosine 5′-[-^33P]triphosphate:12.5 μCi/ml (Amersham Biosciences, BF1000) • Substrate: Myelin Basic Protein 10 μM (Invitrogen, 13228-010) Pipetting Sequence: • 1) Add 10 μl 4 fold concentrated Substrate+4 fold concentrated ATP in […] concentrated Reaction Buffer to each well of Assay Plate • 2) Add 10 μl 4 fold concentrated inhibitor in 4% DMSO in H2O to each well except to C− and C+wells • 3) Add 10 μl 4% DMSO in H2O to C− and C+wells • 4) Add 10 μl 500 mM EDTA in H2O to C− wells • 5) Add 10 μl 50 μCi/ml Adenosine 5′-[-^33P]triphosphate in H2O to each well • 6) Add 10 μl 4 fold concentrated kinase in Reaction Buffer to each well • 7) Incubate 1 hr at room temperature • 8) Add 10 μl 50 mM EDTA in H2O to each well except to C− wells • 9) Prepare MAPH plates by adding 200 μl 0.75% H3PO4 to each well • 10) Exhaust 0.75% H3PO4 using Millipore vacuum station • 11) Add 60 μl 0.75% H3PO4 to each well of MAPH Filter Plate • 12) Transfer 30 μl sample per well from Assay Plate to corresponding well of MAPH Filter Plate • 13) Incubate 30 min at room temperature • 14) Wash each well of MAPH Filter Plates 3× with 200 μl 0.75% H3PO4 using Millipore vacuum station. • 15) Add 20 μl Scintillation Liquid to each well of MAPH Filter Plate • 16) Seal MAPH Filter Plate • 17) Store MAPH Filter Plate 30 min in darkness • 18) Quantify radioactivity Results:
(§2) IC50s were calculated for each kinase based on serial dilutions.

The next experiment concerns the target CDK4/CycD1 (Homo sapiens, UniProt P11802). Description: General kinase assay (Example 80). Type of experiment: biochemical. Particulars: ATP 1 μM. The method, then: as §1, §2
A further experiment deals with CDK6/CycD3 (Homo sapiens, UniProt Q00534). Kind of experiment: General kinase assay (Example 80). Type of experiment: biochemical. Conditions: ATP 1 μM. The method, then:
as §1, §2

A further experiment addresses T1, CDK2/CycA (Homo sapiens, UniProt P24941).
T1 construct: purchased ProQinase (Freiburg, Germany)
Kind of experiment: General kinase assay (Example 80). Conditions: ATP 1 μM. It counts as biochemical. The method, then:
(§3) Kinase assays determining CDK2/CyclinA and CDK5/p35 activity were performed as described by the manufacturer's recommendations (ProQinase (Freiburg, Germany) for CDK2/CyclinA and Upstate for CDK5/p35).
as §1, §2

The target of the next experiment is T2, CDK5/p35 (Homo sapiens, UniProt Q00535).
T2 construct: purchased Upstate
T2 sequence (Q00535 whole entry): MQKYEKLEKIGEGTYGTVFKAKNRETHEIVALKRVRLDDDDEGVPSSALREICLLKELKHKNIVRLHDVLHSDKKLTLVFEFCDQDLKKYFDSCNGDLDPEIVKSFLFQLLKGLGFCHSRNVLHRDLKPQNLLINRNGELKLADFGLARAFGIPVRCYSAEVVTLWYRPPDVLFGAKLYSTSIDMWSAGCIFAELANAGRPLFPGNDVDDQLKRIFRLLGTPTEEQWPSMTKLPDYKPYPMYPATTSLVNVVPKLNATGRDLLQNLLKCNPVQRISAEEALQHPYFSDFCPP
T2 sequence (Q15078 whole entry partner): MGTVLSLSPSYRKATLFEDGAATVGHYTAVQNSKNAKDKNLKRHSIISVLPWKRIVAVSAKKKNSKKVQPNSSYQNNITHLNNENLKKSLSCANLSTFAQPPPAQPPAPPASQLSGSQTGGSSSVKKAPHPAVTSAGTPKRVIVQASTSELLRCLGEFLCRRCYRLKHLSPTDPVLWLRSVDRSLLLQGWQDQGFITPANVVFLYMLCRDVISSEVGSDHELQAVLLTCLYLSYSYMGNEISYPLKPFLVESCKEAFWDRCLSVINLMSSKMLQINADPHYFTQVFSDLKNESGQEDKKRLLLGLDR
Description: General kinase assay (Example 80). Particulars: ATP 1 μM. It counts as biochemical. The method, then: as §3, §1, §2

In the next experiment the test system is A2780. Kind of experiment: Growth assay using Alamar Blue. It counts as cell-based. Particulars: Homo sapiens, read-out: IC50 against cell line A2780. The method, then: (§4) Cells were seeded in 384-well plates (white, Greiner: 781080) at a density of […] cells per well in medium (RPMI+10% FCS).
(§5) Cells were incubated in 25 μl medium/well and were grown over night at 37° C., 6% CO2. On the following day compounds were added in DMSO in serial fold dilutions in fresh medium. Negative control wells were incubated without cells. Positive control wells were incubated with cells but without inhibitors (DMSO only). These wells served as data points to determine relative growth (given in % of the DMSO control [=100%]). The cell number was determined by addition of 5 μL Alamar Blue™ (Biosource DAL1100) to each well. Fluorescence was measures with an Analyst GT machine (Molecular Devices) at an excitation wavelength of 560 nm and an emission wavelength of 590 nm.
(§6) The following cell lines were used: A2780 (ECACC order number 93112519; human ovarian carcinoma; Semin Oncol (1984) 11:285; Cancer Res (1987) 47:414), B16F1 (ATCC order number CRL-6323; melanoma; Nat. New Biol. 242: 148-149, 1973); HCT116 (ATCC order number CCL-247; Colorectal carcinoma; Cancer Res (1981) 41:1751; Cancer (1995) 76:201), HT29 (ATTC order number HTB-38; colorectal adenocarcinoma; J. Biol. Chem. 271: 9490-9496, 1996) HepG2 (ATCC order number HB-8065; hepatocellular carcinoma; J. Biol. Chem. 271: 10073-10078, 1996), J774 (ATCC order number TIB-67; reticulum cell sarcoma; J. Biol. Chem. 271: 18431-18436, 1996); MCF7 (ATCC order number HTB-22; Breast carcinoma; J Natl Cancer Inst (1973) 51:1409; Cancer Res (1993) 53:5193), PM1 (obtainable from the National Institute of Allergy and Infectious Diseases; Division of AIDS via the NIH AIDS Research & Reference Reagent Program; Lusso P et al (1995), J Virol 69: 3712-3720) and U373-MAGI-CCR5 (obtainable from the National Institute of Allergy and Infectious Diseases; Division of AIDS via the NIH AIDS Research & Reference Reagent Program; Kensinger R D et al (2004), Antimicrob Agents Chemother 48: 1614-1623).
(§7) IC50s were calculated for each cell line based on serial dilutions.
On the technique in general: Alamar Blue is a resazurin reagent that responds to reducing activity.

The next experiment has as its system B16F1. Kind of experiment: Growth assay using Alamar Blue. Type of experiment: cell-based. Particulars: Mus musculus, B16-F1, read-out: IC50 against cell line B16F1. The method, then: as §4, §5, §6, §7
The test system of another experiment is HCT116. Description: Growth assay using Alamar Blue. Type of experiment: cell-based. Conditions: Homo sapiens, HCT-116, read-out: IC50 against cell line HCT116. The method, then:
as §4, §5, §6, §7

For a further experiment, the system named is HT29. Description: Growth assay using Alamar Blue. It counts as cell-based. Conditions: Homo sapiens, HT-29, read-out: IC50 against cell line HT29. The method, then: as §4, §5, §6, §7
The subject of a further experiment is HepG2. Description: Growth assay using Alamar Blue. Type of experiment: cell-based. Particulars: Homo sapiens, read-out: IC50 against cell line HepG2. The method, then: as §4, §5, §6, §7
Another experiment concerns J774. Kind of experiment: Growth assay using Alamar Blue. It counts as cell-based. Conditions: Mus musculus, read-out: IC50 against cell line J774. The method, then: as §4, §5, §6, §7
The subject of another experiment is MCF7. Description: Growth assay using Alamar Blue. Type of experiment: cell-based. Particulars: Homo sapiens, read-out: IC50 against cell line MCF7. The method, then:
as §4, §5, §6, §7

Another experiment has as its system PM1. Description: Growth assay using Alamar Blue. It counts as cell-based. Conditions: read-out: IC50 against cell line PM1. The method, then:
as §4, §5, §6, §7

A further experiment concerns U373-MAGI-CCR5E. Description: Growth assay using Alamar Blue. Conditions: read-out: IC50 against cell line U373-MAGI-CCR5E. Type of experiment: cell-based. The method, then: as §4, §5, §6, §7

Where only a bound is given, the exact number is not on record here.

Sequence of CDK1/CycB (P06493 whole entry, species assumed): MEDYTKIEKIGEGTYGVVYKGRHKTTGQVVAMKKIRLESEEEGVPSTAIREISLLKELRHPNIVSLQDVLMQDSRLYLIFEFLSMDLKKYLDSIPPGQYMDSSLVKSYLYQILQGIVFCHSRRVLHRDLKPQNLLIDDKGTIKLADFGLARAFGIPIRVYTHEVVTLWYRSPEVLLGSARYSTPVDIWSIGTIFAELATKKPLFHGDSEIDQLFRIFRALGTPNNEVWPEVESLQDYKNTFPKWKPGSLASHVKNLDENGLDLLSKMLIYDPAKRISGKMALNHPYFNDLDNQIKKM
Sequence of CDK1/CycB (P14635 whole entry partner, species assumed): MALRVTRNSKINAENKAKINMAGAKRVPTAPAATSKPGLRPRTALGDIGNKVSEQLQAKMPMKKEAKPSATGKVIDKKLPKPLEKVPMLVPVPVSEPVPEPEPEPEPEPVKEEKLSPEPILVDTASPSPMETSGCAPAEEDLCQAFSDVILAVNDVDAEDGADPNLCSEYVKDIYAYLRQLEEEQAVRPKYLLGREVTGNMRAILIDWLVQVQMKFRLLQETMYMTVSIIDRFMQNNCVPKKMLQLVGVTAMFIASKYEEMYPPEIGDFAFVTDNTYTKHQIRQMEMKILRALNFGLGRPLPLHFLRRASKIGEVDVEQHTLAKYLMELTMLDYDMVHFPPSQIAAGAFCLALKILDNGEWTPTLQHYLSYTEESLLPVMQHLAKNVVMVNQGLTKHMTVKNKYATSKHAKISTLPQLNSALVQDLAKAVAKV
Sequence of CDK4/CycD1 (P11802 whole entry, species assumed): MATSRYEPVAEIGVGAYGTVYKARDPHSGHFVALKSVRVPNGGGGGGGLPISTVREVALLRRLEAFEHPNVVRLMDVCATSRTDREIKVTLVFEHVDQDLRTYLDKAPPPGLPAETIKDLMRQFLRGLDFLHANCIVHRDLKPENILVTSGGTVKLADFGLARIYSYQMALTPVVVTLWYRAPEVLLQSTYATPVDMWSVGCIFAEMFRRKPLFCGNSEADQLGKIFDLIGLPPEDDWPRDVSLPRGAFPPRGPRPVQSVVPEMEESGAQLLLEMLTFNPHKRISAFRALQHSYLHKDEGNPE
Sequence of CDK4/CycD1 (P24385 whole entry partner, species assumed): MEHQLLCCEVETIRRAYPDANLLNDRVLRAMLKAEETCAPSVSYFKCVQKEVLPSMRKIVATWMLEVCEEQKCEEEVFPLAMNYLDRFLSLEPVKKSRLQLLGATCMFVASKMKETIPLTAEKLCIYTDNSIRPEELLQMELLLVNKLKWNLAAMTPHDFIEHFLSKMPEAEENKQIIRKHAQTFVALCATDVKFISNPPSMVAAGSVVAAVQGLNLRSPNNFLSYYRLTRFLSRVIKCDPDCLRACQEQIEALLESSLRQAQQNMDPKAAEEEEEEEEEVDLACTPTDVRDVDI
Sequence of CDK6/CycD3 (Q00534 whole entry, species assumed): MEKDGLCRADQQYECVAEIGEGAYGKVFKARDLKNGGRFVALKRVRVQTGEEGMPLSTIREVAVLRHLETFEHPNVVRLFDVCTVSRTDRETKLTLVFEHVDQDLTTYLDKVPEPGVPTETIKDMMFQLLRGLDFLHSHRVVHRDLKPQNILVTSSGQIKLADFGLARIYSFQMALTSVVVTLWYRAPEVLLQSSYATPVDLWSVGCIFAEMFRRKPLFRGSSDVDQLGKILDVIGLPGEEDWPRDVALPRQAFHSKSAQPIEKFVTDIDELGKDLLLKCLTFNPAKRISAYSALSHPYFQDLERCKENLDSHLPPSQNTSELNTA
Sequence of CDK6/CycD3 (P30281 whole entry partner, species assumed): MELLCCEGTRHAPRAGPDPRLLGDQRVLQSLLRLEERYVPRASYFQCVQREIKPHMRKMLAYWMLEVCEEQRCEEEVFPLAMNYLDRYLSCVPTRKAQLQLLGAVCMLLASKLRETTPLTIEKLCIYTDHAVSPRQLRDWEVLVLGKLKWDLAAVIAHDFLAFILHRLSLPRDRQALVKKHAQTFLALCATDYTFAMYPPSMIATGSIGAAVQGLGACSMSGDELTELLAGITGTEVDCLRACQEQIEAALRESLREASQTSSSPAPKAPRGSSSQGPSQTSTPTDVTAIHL

For the compound `CN1CC[C@H](c2c(O)cc(O)c3c(=O)cc(-c4ccccc4Cl)oc23)[C@H](O)C1` [flavopiridol], in the experiment on HBV (HepG2-2.2.15 cells), the “HBV replication (HBV-DNA)” value is on record as “inhibits replication”.

What is called IC50 is the point on the concentration scale where inhibition reaches its midpoint. Regarding `COc1ccccc1-c1cc(Nc2cccc(CS(N)(=O)=O)c2)ncn1` [Compound 85, C-{3-[6-(2-methoxy-phenyl)-pyrimidin-4-ylamino]-phenyl}-methanesulfonamide], the IC50 on CDK1/CycB was less than 10 µM; on CDK4/CycD1 it was less than 10 µM; on CDK6/CycD3 it was less than 10 µM; at CDK2/CycA, less than 10 µM; on CDK5/p35 it was less than 5 µM; in the experiment with A2780, less than 10 µM. In addition, the IC50 with B16F1 was less than 10 µM; with HCT116, less than 2 µM; with HT29 it was less than 5 µM; in the experiment with HepG2 it was less than 10 µM; with J774 it was less than 10 µM; in the experiment on MCF7 it was less than 10 µM. Moreover, the IC50 in the experiment on PM1 is less than 5 µM; with U373-MAGI-CCR5E it was less than 10 µM.

The record behind these values is patent publication US8507498B2, “4, 6-disubstituted aminopyrimidine derivatives as inhibitors of protein kinases” (Ingenium Pharmaceuticals GmbH, priority 2007, dated 2013).
